The results in this text go back to patent publication US20190345150A1, “MICROBIOCIDAL OXADIAZOLE DERIVATIVES” (SYNGENTA PARTICIPATIONS AG, priority 2016, published 2019).

In data set [1] the test system is Glomerella laqenarium (Colletotrichum laqenarium). Description: Glomerella lagenarium liquid culture / cucumber / preventative (anthracnose). It is filed as cell-based. As to conditions: 20 ppm in the applied formulation, liquid culture in PDB, growth inhibition measured photometrically 3 to 4 days after application, compared to untreated control, read-out: disease control. As for the experimental part: Mycelia fragments or conidia suspensions of a fungus prepared either freshly from liquid cultures of the fungus or from cryogenic storage, are directly mixed into nutrient broth. DMSO solutions of the test compound (max. 10 mg/ml) are diluted with 0.025% Tween20 by a factor of 50 and 10 μl of this solution is pipetted into a microtiter plate (96-well format). The nutrient broth containing the fungal spores/mycelia fragments is then added to give an end concentration of the tested compound. The test plates are incubated in the dark at 24° C. and 96% relative humidity. The inhibition of fungal growth is determined photometrically after 2 to 7 days, depending on the pathosystem, and percent antifungal activity relative to the untreated check is calculated. Conidia of the fungus from cryogenic storage are directly mixed into nutrient broth (PDB—potato dextrose broth). After placing a (DMSO) solution of test compound into a microtiter plate (96-well format), the nutrient broth containing the fungal spores is added. The test plates are incubated at 24° C. and the inhibition of growth is measured photometrically 3 to 4 days after application.

Broadly, the melting point is the temperature, or range, at which the solid turns liquid. As for `Fc1c(COc2ccccc2)ccc(-c2noc(C(F)(F)F)n2)c1F` [Compound 1.12, 3-[2,3-difluoro-4-(phenoxymethyl)phenyl]-5-(trifluoromethyl)-1,2,4-oxadiazole], the melting point fell in the range of 113 to 115 °C.

For `Cc1nnc(OCc2ccc(-c3noc(C(F)(F)F)n3)cc2)o1` [Compound 1.20, 2-methyl-5-[[4-[5-(trifluoromethyl)-1,2,4-oxadiazol-3-yl]phenyl]methoxy]-1,3,4-oxadiazole], the inhibition of growth at 20 ppm in data set [1] is at least 80%. On the same count and under the same terms, next, `FC(F)(F)c1nc(-c2ccc(COc3ccc(Br)nn3)cc2)no1` [Compound 1.21, 3-[4-[(6-bromopyridazin-3-yl)oxymethyl]phenyl]-5-(trifluoromethyl)-1,2,4-oxadiazole]: at least 80%; `Cc1cccc(OC(C)c2ccc(-c3noc(C(F)(F)F)n3)cc2)n1` (stereo not drawn) [Compound 1.24, 3-[4-[1-[(6-methyl-2-pyridyl)oxy]ethyl]phenyl]-5-(trifluoromethyl)-1,2,4-oxadiazole]: at least 80%. With `Cc1cccc(OCc2cc(F)c(-c3noc(C(F)(F)F)n3)c(F)c2)n1` [Compound 1.25, 3-[2,6-difluoro-4-[(6-methyl-2-pyridyl)oxymethyl]phenyl]-5-(trifluoromethyl)-1,2,4-oxadiazole], the melting point lay within 65 to 66 °C. For the same compound, the inhibition of growth at 20 ppm in data set [1] is at least 80%. For the compound `Cc1cccc(OCc2cc(F)c(-c3noc(C(F)(F)F)n3)cc2F)n1` [Compound 1.27, 3-[2,5-difluoro-4-[(6-methyl-2-pyridyl)oxymethyl]phenyl]-5-(trifluoromethyl)-1,2,4-oxadiazole], the melting point lay in the range of 91 to 94 °C. Turning to `CC(C)C(=O)OCc1ccc(-c2noc(C(F)(F)F)n2)cc1` [Compound 2.2, [4-[5-(trifluoromethyl)-1,2,4-oxadiazol-3-yl]phenyl]methyl 2-methylpropanoate], the melting point fell in the range of 48 to 50 °C. In addition, in data set [1], the inhibition of growth at 20 ppm was at least 80%.

Take `CC(C)(C)C(=O)OCc1ccc(-c2noc(C(F)(F)F)n2)cc1` [Compound 2.3, [4-[5-(trifluoromethyl)-1,2,4-oxadiazol-3-yl]phenyl]methyl 2,2-dimethylpropanoate]: in data set [1], the inhibition of growth at 20 ppm is at least 80%. Same read-out and setting: next, `CON(C)C(=O)OCc1ccc(-c2noc(C(F)(F)F)n2)cc1` [Compound 3.4, [4-[5-(trifluoromethyl)-1,2,4-oxadiazol-3-yl]phenyl]methyl N-methoxy-N-methyl-carbamate]: at least 80%. Regarding `CN(C(=O)OCc1ccc(-c2noc(C(F)(F)F)n2)cc1)c1ccccn1` [Compound 3.6, [4-[5-(trifluoromethyl)-1,2,4-oxadiazol-3-yl]phenyl]methyl N-methyl-N-(2-pyridyl)carbamate], the melting point lay in the range of 110 to 112 °C. The same measure, in the same setting: next, `CNC(=O)OCc1ccc(-c2noc(C(F)(F)F)n2)cc1` [Compound 3.7, [4-[5-(trifluoromethyl)-1,2,4-oxadiazol-3-yl]phenyl]methyl N-methylcarbamate]: 100 to 102 °C.

`CC1=NN(C)C(=O)C1=NOCc1ccc(-c2noc(C(F)(F)F)n2)cc1` [Compound 4.4, 2,5-dimethyl-4-[[4-[5-(trifluoromethyl)-1,2,4-oxadiazol-3-yl]phenyl]methoxyimino]pyrazol-3-one] showed a melting point of 110 to 111 °C. Further, the inhibition of growth at 20 ppm in data set [1] was at least 80%.
